Results taken from US10654851B2, “Deuterated 3-(4,5-substituted aminopyrimidine)phenyl derivatives and use thereof” (NANJING CHUANGTE PHARMACEUTICAL TECHNOLOGY CO., LTD, priority 2016, dated 2020).

What was measured:
[1] = biological target: EGFR (L858R) single mutant (Homo sapiens, UniProt P00533, L858R); assay: HTRF kinase activity assay, EGFR (L858R) single mutant
Procedure: (§1) The above kinases were purchased from Invitrogen Corporation Shanghai Representative Office.
(§2) The reaction concentration of the compounds was three times diluted from 1000 nM for 9 concentrations. The concentration of DMSO in the reaction system was 2%. The enzyme and the compound were pre-incubated for 15 minutes, and then ATP and substrate were added to initiate the reaction. All enzyme catalyzed reactions were carried out at 25° C. for 60 minutes. […] Measure the HTRF fluorescence value with CLARIOstar (BMG LABTECH) after the incubation, and IC50 was determined using GraphPad Prism 5.0.

[2] = biological target: T1, EGFR wild type (Homo sapiens, UniProt P00533); assay: HTRF kinase activity assay, EGFR wild type; type: biochemical; details: 10 μM ATP, read-out: In vitro enzymatic activity IC50, EGFR
T1 construct: purchased Invitrogen Corporation Shanghai Representative Office
Procedure: as §1, §2

[3] = biological target: wild type EGFR in A431 cells (Homo sapiens, UniProt P00533); assay: EGFR wild type cell phosphorylation assay (A431)
Procedure: Test 1: EGFR Wild Type Cell Phosphorylation Assay
The human epidermoid carcinom cell line A431 expressed wild type EGFR and was purchased from the cell bank of the Chinese Academy of Sciences. A431 was maintained in an EMEM culture media containing 10% fetal bovine serum. The cells were grown at 37° C. in a humidified incubator containing 5% CO2. Endogenous p-EGFR in the cell lysate was assayed according to Phospho-EGFR HTRF kit (Cisbio, No. #64HR1PEG). Cells were plated (50000 cells/well) in a volume of 100 μL of complete media in 96-well cell culture plates and cultured at 37° C. with 5% CO2 overnight. 4-fold serial dilutions was added to the cells, the maximum concentration of the reaction being 10 μM. The cells were incubated continuously for 2 hours, 100 ng/well of EGF was added, incubated at 37° C. for 10 minutes, then the culture solution was discarded, lysis buffer (25 μL/well) was added immediately, lyse the cells at room temperature for 10 minutes, then 12 μL/well of the cell lysates were added to a Greiner white small-volume 384-well plate, detection antibodies (Anti-phospho EGFR-d2 and Anti-EGFR-Tb) were added, and the cells were incubated at 25° C. for 60 minutes. The HTRF fluorescence value was measured with CLARIOstar (BMG LABTECH) after the incubation, and IC50 was determined using GraphPad Prism 5.0.

[4] = biological target: T2, Exon19 deletion EGFR in HCC827 cells (Homo sapiens, UniProt P00533, DEL746-750); assay: Exon19 deletion EGFR cell phosphorylation assay (HCC827); type: cell-based; details: 2 h incubation, read-out: Cell level EGFR phosphorylation IC50, HCC827 (EGFR del19)
T2 construct: Assayed the endogenous p-EGFR of the cell lysate; host or cells: HCC827
Procedure: Test 2: Exon19 Deletion EGFR (Activated Single Mutant) Cell Phosphorylation Assay
The human non-small cell lung cancer cell line HCC827 (Exon19 deletion EGFR, activated single mutant) was purchased from the cell bank of the Chinese Academy of Sciences. HCC827 was maintained in an RPMI1640 culture media containing 10% fetal bovine serum. The cells were grown at 37° C. in a humidified incubator containing 5% CO2. Assayed the endogenous p-EGFR of the cell lysate according to the Phospho-EGFR HTRF kit (Cisbio, No. #64HR1PEG). 100 μL of cells were added to a 96-well plate (50000 cells/well), and cultured overnight at 37° C. in a cell incubator with 5% CO2. 4-fold serial dilutions was added to the cells, the maximum concentration of the reaction being 10 μM. The culture solution was discarded after 2 hours' continuous incubation, lysate (25 μL/well) was added immediately, lyse the cells at room temperature for 10 minutes, then 12 μL/well of cells were added to a Greiner white small-volume 384-well plate, detection antibodies (Anti-phospho EGFR-d2 and Anti-EGFR-Tb) were added, and the cells were incubated at 25° C. for 60 minutes. The HTRF fluorescence value was measured with CLARIOstar (BMG LABTECH) after the incubation, and IC50 was determined using GraphPad Prism 5.0.

[5] = biological target: T3, hERG potassium channels (Homo sapiens, UniProt Q12809); assay: hERG potassium channel whole cell patch clamp; type: cell-based; details: HEK293 cells stably expressing hERG, tail current, read-out: IC50 of inhibition on hERG potassium channels at cell level
T3 construct: expressed in transfected cells; host or cells: HEK293
Procedure: 3) Assay on the Effects of the Compounds on hERG Potassium Channels
HEK293 cells stably expressing an hERG channel were cultured in 35 mm culture dishes and placed in a 37° C./5% CO2 incubator for at least 24 hours before the experiment. The cell culture medium was DMEM containing 10% fetal bovine serum and 250 μg/mL G418.
The ingredients of the extracellular fluid used in the whole cell patch clamp experiment were (mM): NaCl, 137; KCl, 4; CaCl2, 1.8; MgCl2, 1; HEPES, 10; glucose 10; pH 7.4 (NaOH titration). All tested compounds and control compound solutions contained 0.3% DMSO. The intracellular fluid (mM) was: K Aspartate, 130; MgCl2, 5; EGTA 5; HEPES, 10; Tris-ATP 4; pH 7.2 (KOH titration).
One dish was taken out for each experiment, washed twice with the extracellular fluid, and placed on an inverted microscope stage. The whole cell patch clamp experiment was performed at room temperature with a tip resistance of 3 to 5 MΩ for a borosilicate glass microelectrode. After the whole cell recording mode, the membrane potential was clamped at −80 mV, gave a +50 mV depolarization voltage stimulation to the cells every 30 s and then repolarized to −50 mV for 3 s after 2 s to elicit hERG tail current. The cells were given a −50 mV repolarization voltage for 50 ms before the depolarization voltage stimulation, and the current recorded under this voltage was used as a baseline for calculating the hERG tail current. The hERG tail current was stably recorded for at least 3 minutes in the extracellular fluid before the addition of the compound. When the amplitude change of the hERG tail current was less than 5% after perfusion administration, it was considered that the drug action reached a steady state. Data was acquired and analyzed by a pCLAMP 10.1 software program. […] The inhibition rate of the tested compound to the hERG current was calculated according to the following equation: % inhibition rate={1−(remaining current amplitude)/(control current amplitude)}×100 […]

T1 sequence (P00533 25-1210): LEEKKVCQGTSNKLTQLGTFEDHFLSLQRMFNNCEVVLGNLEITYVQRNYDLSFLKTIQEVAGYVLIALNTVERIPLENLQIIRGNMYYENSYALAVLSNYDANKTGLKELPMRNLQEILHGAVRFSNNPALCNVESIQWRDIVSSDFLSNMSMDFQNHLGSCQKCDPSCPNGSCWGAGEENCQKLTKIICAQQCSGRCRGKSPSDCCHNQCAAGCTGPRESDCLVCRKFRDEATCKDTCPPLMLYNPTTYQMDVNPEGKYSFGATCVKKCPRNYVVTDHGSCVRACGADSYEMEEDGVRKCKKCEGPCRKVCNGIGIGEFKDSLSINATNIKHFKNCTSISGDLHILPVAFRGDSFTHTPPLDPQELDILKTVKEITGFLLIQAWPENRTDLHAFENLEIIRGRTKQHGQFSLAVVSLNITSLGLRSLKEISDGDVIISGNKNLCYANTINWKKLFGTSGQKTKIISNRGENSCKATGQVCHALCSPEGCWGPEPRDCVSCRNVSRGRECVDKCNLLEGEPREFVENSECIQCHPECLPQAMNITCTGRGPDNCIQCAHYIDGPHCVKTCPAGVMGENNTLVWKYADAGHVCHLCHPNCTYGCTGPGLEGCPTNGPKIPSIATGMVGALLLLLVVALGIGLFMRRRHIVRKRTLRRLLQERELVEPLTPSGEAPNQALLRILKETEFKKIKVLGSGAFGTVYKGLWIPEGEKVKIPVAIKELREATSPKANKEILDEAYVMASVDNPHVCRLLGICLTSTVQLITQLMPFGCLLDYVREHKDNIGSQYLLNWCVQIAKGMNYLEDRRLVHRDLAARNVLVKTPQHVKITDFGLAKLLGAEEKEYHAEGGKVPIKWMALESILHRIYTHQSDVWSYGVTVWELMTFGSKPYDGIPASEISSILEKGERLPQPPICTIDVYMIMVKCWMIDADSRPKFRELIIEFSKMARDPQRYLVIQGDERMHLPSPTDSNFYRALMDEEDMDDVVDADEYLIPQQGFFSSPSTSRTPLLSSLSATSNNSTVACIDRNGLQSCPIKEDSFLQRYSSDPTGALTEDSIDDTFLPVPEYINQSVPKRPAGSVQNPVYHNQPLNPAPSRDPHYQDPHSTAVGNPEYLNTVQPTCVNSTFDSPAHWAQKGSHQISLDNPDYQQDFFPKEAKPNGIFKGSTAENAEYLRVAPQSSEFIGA
Sequence of wild type EGFR in A431 cells (P00533 25-1210): as above
T2 sequence (P00533 with tags, fused parts or gaps DEL746-750): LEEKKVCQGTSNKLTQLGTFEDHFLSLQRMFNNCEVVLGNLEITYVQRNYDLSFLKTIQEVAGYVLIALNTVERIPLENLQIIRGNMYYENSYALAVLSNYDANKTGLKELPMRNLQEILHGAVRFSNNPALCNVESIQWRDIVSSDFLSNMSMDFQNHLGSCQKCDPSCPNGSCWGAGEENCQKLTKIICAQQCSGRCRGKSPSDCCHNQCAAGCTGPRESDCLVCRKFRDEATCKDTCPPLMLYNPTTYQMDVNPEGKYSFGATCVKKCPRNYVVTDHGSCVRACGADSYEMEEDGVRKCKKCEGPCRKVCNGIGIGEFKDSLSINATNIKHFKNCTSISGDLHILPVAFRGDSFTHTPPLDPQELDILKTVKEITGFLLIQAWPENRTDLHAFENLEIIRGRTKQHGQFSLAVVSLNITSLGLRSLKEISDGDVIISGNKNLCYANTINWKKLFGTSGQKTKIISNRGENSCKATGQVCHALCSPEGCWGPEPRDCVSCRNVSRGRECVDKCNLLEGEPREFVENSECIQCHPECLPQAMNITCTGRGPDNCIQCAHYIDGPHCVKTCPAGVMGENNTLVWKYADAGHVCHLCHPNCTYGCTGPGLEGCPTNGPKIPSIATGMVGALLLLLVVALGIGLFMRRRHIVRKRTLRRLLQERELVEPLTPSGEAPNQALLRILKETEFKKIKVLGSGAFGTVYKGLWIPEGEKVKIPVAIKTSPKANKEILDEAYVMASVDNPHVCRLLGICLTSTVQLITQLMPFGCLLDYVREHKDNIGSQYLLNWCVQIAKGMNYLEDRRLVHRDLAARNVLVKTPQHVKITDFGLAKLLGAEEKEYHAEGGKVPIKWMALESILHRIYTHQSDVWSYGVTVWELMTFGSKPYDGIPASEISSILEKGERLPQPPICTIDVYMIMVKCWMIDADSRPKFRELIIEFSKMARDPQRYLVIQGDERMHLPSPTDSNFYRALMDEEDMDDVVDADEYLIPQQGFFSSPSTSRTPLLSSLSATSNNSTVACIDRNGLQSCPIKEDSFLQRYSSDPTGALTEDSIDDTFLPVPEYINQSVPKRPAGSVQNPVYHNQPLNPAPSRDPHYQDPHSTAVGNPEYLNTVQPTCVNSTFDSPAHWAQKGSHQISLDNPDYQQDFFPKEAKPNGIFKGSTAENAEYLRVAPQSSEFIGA
Sequence of EGFR (L858R) single mutant (P00533 25-1210 L858R): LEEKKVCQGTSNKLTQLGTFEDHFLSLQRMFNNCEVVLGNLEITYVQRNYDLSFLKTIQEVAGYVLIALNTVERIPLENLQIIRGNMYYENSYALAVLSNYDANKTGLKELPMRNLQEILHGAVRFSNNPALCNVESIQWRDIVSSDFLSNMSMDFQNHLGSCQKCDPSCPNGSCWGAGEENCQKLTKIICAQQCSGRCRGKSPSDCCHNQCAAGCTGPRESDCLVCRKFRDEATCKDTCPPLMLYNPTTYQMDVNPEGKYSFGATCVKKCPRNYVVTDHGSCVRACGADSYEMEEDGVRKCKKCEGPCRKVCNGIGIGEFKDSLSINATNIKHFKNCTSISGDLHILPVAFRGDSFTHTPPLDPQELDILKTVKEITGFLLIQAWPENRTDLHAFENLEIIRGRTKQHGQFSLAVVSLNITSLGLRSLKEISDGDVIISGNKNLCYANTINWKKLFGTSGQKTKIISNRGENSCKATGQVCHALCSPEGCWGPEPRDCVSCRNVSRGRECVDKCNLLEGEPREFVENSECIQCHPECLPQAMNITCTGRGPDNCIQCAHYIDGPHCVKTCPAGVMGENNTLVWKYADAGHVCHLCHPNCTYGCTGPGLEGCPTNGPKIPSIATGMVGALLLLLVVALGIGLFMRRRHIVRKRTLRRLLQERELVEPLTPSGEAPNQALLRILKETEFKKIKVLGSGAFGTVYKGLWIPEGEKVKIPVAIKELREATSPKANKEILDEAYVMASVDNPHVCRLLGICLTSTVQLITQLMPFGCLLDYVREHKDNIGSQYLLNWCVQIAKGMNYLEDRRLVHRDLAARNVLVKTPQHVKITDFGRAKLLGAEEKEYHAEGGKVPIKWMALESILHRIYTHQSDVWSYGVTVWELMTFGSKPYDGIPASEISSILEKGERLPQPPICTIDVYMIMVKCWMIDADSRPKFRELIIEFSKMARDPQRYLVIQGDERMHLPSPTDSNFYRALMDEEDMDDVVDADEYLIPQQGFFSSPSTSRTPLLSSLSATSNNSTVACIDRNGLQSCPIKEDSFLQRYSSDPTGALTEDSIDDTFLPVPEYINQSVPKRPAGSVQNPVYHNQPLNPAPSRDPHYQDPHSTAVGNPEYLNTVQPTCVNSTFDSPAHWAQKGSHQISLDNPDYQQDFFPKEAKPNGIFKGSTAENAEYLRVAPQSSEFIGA

`[2H]C([2H])([2H])NCCN(C)c1cc(OC)c(Nc2nccc(-c3cn4c5c(cccc35)CCC4)n2)cc1NC(=O)C=C` [Compound 34] gave an IC50 [1] of 14.1 nM and an IC50 [2] of 35.4 nM.

`[2H]C([2H])([2H])N(C)CCN(C)c1cc(OC)c(Nc2nccc(-c3cn4c5c(cccc35)CCC4)n2)cc1NC(=O)C=C` [Compound 11] gave an IC50 [3] of 730 nM, an IC50 [1] of 11.5 nM and an IC50 [2] of 38 nM. For the same compound, the IC50 [4] was 101 nM and the IC50 [5] was 1850 nM.

In the case of `[2H]C([2H])([2H])N(CCN(C)C)c1cc(OC)c(Nc2nccc(-c3cn4c5c(cccc35)CCC4)n2)cc1NC(=O)C=C` [Compound 24], the IC50 [3] is reported as 520 nM, the IC50 [1] is reported as 8.99 nM and the IC50 [2] is reported as 15.7 nM. The IC50 [4] was 78.1 nM and the IC50 [5] was 1970 nM.

In the case of `[2H]C([2H])([2H])N(CCN(C)c1cc(OC)c(Nc2nccc(-c3cn4c5c(cccc35)CCC4)n2)cc1NC(=O)C=C)C([2H])([2H])[2H]` [Compound 16], the IC50 [3] is reported as 732 nM, the IC50 [1] is reported as 11.6 nM and the IC50 [2] is reported as 27 nM. It also gave an IC50 [4] of 103 nM and an IC50 [5] of 2670 nM.
